{"source": "patent US20250108038A1", "about": "(priority 2023, published 2025)", "key": {"[1]": {"experiment": "Plasma and brain concentrations after 3 mg/kg i.p. in male CD-1 mice", "conditions": "for fu* Cmax: fu by equilibrium dialysis after 6 h", "protocol": "Following dosing, three animals were sacrificed per time-point for the collection of terminal plasma and brain. […] Pharmacokinetics (PK) parameters for plasma and whole brain were estimated from the mean plasma and brain concentration versus time profiles.\nThe animals will be acclimatized to their new environment for a minimum of 5 days prior to study start.\nAny unused dosing solutions will be stored at approximately −80° C. until transferred on dry ice to the bioanalytical facility.\nThe animals will be dosed intra-peritoneally (i.p.) into the lower right quadrant of the abdomen using a 0.5 mL Tuberculin syringe with attached needle 27 G×[…].\nWhole blood will be collected via cardiac puncture under isoflurane anesthesia from three mice at each time-point at the collection times outlined in Table 2. Up to 0.8 mL of blood will be collected into 0.8 mL mini-collect K2EDTA coated tubes. Blood tubes will be centrifuged at 3200×g for 5 min. at 4° C. and plasma transferred into 1.5 mL flip top tubes. One vial of plasma for each collection time point will stored at approximately […] until transferred on dry ice to the bioanalytical facility.\nFollowing cardiac puncture, mice will be perfused with 12 mL of ice-cold PBS via the left ventricle. Brains will then be excised, blotted and placed into pre-weighed 5 mL self standing green top sample tubes. Tubes containing brains will be re-weighed and then snap frozen in liquid nitrogen. Brain samples will be stored frozen at approximately −80° C. until transferred on dry ice to the bioanalytical facility."}, "[2]": {"experiment": "Brain homogenate binding by equilibrium dialysis", "assay_type": "in vitro ADME, mouse", "conditions": "for % Recovery / % Unbound: mouse brain, 2 μM, 37° C.", "protocol": "Samples of spiked plasma and blank buffer (Dulbecco's phosphate-buffered saline, DPBS) and spiked brain homogenate and blank DPBS added to opposing sides of a dialysis membrane were collected from triplicate equilibrium dialysis chambers prior to (t=0) and following 1, 2, 4 and 6 hours of incubation at 37° C. […] The LC-MS/MS method(s) for analytes (Compound I-19, Compound A and Compound B) was cross-qualified for the analysis of the DPBS samples.\nA secondary stock solution of 200 μM (74.2 ug/mL) will be prepared in DMSO. This secondary stock solution will then be diluted 100-fold to 2 μM ([…]) with male CD-1 mouse plasma and brain homogenate (1:2 v/v brain:Dulbecco's phosphate buffered saline, pH 7-7.2) or buffer (DPBS).\nTo 2.97 mL aliquots of thawed mouse plasma or brain homogenate warmed to 37° C., 30 ul aliquots of the secondary stock solution of the test compound will be added for final concentrations of 2 μM (0.742 ug/mL). An appropriate volume of warmed buffer (DPBS) will also be spiked with the test compound at a concentration of 2 μM ([…]). Triplicate aliquots (50 μL) of each spiked plasma, brain homogenate and buffer solution will be collected prior to dialysis into labeled 1.5 mL polypropylene tubes and then stored at approximately −80° C. until bioanalysis.\nEquilibrium dialysis will be performed in a 96-well Teflon dialysis unit (HTDialysis, Gales Ferry, CT). Each well of the unit consists of two chambers separated by a vertically aligned dialysis membrane (regenerated cellulose) with a molecular weight cut-off of 12-14 KDa. The equilibrium dialysis membranes will first be presoaked in deionized water for 30 min, then soaked in 20% ethanol for 20 min, followed by rinsing twice with deionized water.\nThe equilibrium dialysis apparatus will be assembled according to the manufacturer's directions. One chamber of each well will be immediately filled with 150 μL of blank buffer (to prevent membrane dehydration). Aliquots (150 μL) of spiked plasma, spiked brain homogenate and spiked buffer will then be added to the opposing chamber in each well. Three wells per time point per matrix will be used. The top of the plate will be sealed with an adhesive sealing film to prevent evaporation and maintain constant pH during incubation.\nThe dialysis apparatus will be incubated at 37° C. in an orbital shaker/incubator (Lab-Line Enviro Shaker) set at 75 rpm.\nFollowing 1, 2, 4 and 6 hours of incubation, samples from each plasma, brain homogenate and buffer compartment will be collected and the sample volume will be documented."}, "C57BL/6 mice": {"test_system": "C57BL/6 mice", "experiment": "SmartCage locomotor activity monitoring", "assay_type": "in vivo, mouse", "conditions": "0.3, 1.0, 3.0 and 10 mg/kg, IP, 24 h"}, "CYP2C19": {"biological_target": "CYP2C19 (Homo sapiens, UniProt P33261)", "sequence (P33261 whole entry)": "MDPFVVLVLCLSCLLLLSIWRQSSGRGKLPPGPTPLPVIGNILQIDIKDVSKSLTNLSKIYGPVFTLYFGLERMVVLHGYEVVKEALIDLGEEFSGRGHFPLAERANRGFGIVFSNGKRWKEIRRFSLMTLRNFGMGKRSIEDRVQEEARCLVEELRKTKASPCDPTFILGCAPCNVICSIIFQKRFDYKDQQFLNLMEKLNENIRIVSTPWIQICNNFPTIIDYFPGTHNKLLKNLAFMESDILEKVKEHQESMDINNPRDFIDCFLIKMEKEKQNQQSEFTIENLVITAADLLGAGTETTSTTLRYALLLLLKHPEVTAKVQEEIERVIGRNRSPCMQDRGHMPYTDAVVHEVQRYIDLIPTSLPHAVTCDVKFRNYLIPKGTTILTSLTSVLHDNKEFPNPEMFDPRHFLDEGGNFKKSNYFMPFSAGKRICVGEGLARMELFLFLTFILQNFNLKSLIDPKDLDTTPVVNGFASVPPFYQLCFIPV"}, "CYP2D6": {"biological_target": "CYP2D6 (Homo sapiens, UniProt P10635)", "sequence (P10635 whole entry)": "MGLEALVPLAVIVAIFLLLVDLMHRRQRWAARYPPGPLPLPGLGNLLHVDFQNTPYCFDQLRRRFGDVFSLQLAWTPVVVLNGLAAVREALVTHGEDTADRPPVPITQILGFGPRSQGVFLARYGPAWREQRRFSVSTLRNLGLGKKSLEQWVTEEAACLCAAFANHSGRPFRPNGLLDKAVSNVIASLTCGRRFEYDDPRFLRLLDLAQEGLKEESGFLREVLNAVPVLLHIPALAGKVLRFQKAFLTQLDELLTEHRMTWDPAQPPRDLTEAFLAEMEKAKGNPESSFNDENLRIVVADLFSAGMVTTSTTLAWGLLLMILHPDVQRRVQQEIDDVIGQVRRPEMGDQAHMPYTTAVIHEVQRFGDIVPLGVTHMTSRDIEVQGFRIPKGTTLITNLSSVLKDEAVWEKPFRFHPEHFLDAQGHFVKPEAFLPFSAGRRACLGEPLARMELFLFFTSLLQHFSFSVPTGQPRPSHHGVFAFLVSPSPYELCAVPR", "experiment": "in vitro", "conditions": "both, pH 7.4"}, "CYP3A4": {"biological_target": "CYP3A4 (Homo sapiens, UniProt P08684)", "sequence (P08684 whole entry)": "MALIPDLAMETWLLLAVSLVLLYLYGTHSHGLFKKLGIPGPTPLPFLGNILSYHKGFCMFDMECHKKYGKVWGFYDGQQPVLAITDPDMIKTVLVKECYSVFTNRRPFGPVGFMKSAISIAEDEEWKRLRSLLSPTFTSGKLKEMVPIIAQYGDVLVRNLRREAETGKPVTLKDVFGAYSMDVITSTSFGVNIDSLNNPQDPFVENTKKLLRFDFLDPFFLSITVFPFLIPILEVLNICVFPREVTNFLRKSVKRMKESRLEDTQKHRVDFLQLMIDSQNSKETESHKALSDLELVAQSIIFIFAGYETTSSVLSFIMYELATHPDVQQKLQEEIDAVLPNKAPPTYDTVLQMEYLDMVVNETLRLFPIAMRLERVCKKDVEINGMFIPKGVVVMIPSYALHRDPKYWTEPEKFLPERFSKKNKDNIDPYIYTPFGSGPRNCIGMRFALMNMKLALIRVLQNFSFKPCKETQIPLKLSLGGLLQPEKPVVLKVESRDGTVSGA", "experiment": "in vitro", "conditions": "both, pH 7.4, Inhibition at Highest Test Article Concentration"}, "[3]": {"conditions": "3 mg/kg i.p. Compound I-19, male CD-1 mice"}, "[4]": {"conditions": "after 3 mg/kg i.p. Compound I-19"}, "[5]": {"conditions": "after 3 mg/kg i.p. Compound I-19, below the lower levels of quantitation"}, "[6]": {"conditions": "brain, 3 mg/kg i.p. Compound I-19, male CD-1 mice"}, "[7]": {"conditions": "plasma, 3 mg/kg i.p. Compound I-19, male CD-1 mice"}}, "note": "Values joined by “and” are separate entries in the source; they are usually repeats but may differ in a detail not shown here. Identical values can stand only once. Like-named read-outs stand apart in the source and are kept apart here.", "data": [{"smiles": "Clc1ccc(C2(OCC3OCCO3)c3ccccc3C3=NCCN32)cc1", "note": "(stereo not shown) [Compound I-19]", "values": [{"measurement": "Cmax in brain relative to plasma", "setting": "[1]; 3 mg/kg i.p.", "value": 1.8, "unit": "fold"}, {"measurement": "Maximum brain concentration (Cmax) of Compound I-19", "setting": "[1]; 3 mg/kg i.p.", "value": 1182, "unit": "nmol/kg"}, {"measurement": "Tmax of Compound I-19 (plasma and brain)", "setting": "[1]; 3 mg/kg i.p.", "value": 5, "unit": "min"}, {"measurement": "apparent half-life in brain", "setting": "[1]; 3 mg/kg i.p.", "value": "25.6 min and 25.2 min"}, {"measurement": "apparent half-life in plasma", "setting": "[1]; 3 mg/kg i.p.", "value": "25.4 min and 25.2 min"}, {"measurement": "(fu* AUC0-inf)brain/(fu*AUC0-inf)plasma ratio (Kp, uu)", "setting": "[1]; [3]", "value": 2.12}, {"measurement": "Brain/plasma AUC0-inf ratio (Kp)", "setting": "[1]; [3]", "value": 2.38}, {"measurement": "brain to plasma partitioning coefficient (Kp)", "setting": "[1]; 3 mg/kg i.p., AUC0-inf based", "value": 2.38}, {"measurement": "brain to plasma unbound partition coefficient (Kp,uu)", "setting": "[1]; 3 mg/kg i.p., corrected for unbound fractions", "value": 2.12}, {"measurement": "Tmax of Compound A in brain", "setting": "[1]; [4]", "value": 45, "unit": "min"}, {"measurement": "Tmax of Compound A in plasma", "setting": "[1]; [4]", "value": 15, "unit": "min"}, {"measurement": "peak brain concentration of Compound A", "setting": "[1]; [4]", "value": 60.3, "unit": "nmol/kg"}, {"measurement": "peak plasma concentration of Compound A", "setting": "[1]; [4]", "value": 48.2, "unit": "nmol/L"}, {"measurement": "brain concentration of Compound B", "setting": "[1]; [5]", "value": "< 3", "unit": "nmol/kg"}, {"measurement": "plasma concentration of Compound B", "setting": "[1]; [5]", "value": "< 1", "unit": "nM"}, {"measurement": "Cmax", "setting": "[1]; brain (expressed as nmol/kg = nmol/L per footnote), 3 mg/kg i.p. Compound I-19, male CD-1 mice", "value": 1180, "unit": "nM"}, {"measurement": "AUC0-inf", "setting": "[1]; [6]", "value": 0.521, "unit": "µM·h"}, {"measurement": "Apparent T1/2", "setting": "[1]; [6]", "value": 25.6, "unit": "min"}, {"measurement": "Tmax", "setting": "[1]; [6]", "value": 5, "unit": "min"}, {"measurement": "fu* AUC0-inf", "setting": "[1]; [6]", "value": 0.0172, "unit": "µM·h"}, {"measurement": "fu* Cmax", "setting": "[1]; [6]", "value": 39.1, "unit": "nM"}, {"measurement": "AUC0-inf", "setting": "[1]; [7]", "value": 0.218, "unit": "µM·h"}, {"measurement": "Apparent T1/2", "setting": "[1]; [7]", "value": 25.4, "unit": "min"}, {"measurement": "Cmax", "setting": "[1]; [7]", "value": 648, "unit": "nM"}, {"measurement": "Tmax", "setting": "[1]; [7]", "value": 5, "unit": "min"}, {"measurement": "fu* AUC0-inf", "setting": "[1]; [7]", "value": 0.00813, "unit": "µM·h"}, {"measurement": "fu* Cmax", "setting": "[1]; [7]", "value": 24.1, "unit": "nM"}, {"measurement": "Cmax", "setting": "[1]; read-out: Maximum plasma concentration (Cmax) of Compound I-19, 3 mg/kg i.p.", "value": 648, "unit": "nM"}, {"measurement": "% recovery, brain homogenate", "setting": "[2]; 6 hours of dialysis", "value": "51.3±2.58", "unit": "%"}, {"measurement": "% Recovery", "setting": "[2]; dialysis time 1 h", "value": "87.8 ± 2.40", "unit": "%"}, {"measurement": "% Unbound", "setting": "[2]; dialysis time 1 h", "value": 1.33, "unit": "%"}, {"measurement": "% Recovery", "setting": "[2]; dialysis time 2 h", "value": "83.1 ± 1.58", "unit": "%"}, {"measurement": "% Unbound", "setting": "[2]; dialysis time 2 h", "value": "1.64 ± 0.181", "unit": "%"}, {"measurement": "% Recovery", "setting": "[2]; dialysis time 4 h", "value": "65.1 ± 4.05", "unit": "%"}, {"measurement": "% Unbound", "setting": "[2]; dialysis time 4 h", "value": "2.46 ± 0.183", "unit": "%"}, {"measurement": "% Recovery", "setting": "[2]; dialysis time 6 h", "value": "51.3 ± 2.58", "unit": "%"}, {"measurement": "% Unbound", "setting": "[2]; dialysis time 6 h", "value": "3.31 ± 0.385", "unit": "%"}, {"measurement": "home cage activity (activity, rearing, velocity, distance)", "setting": "C57BL/6 mice", "value": "no significant effect on the diurnal or nocturnal activity measures"}, {"measurement": "Inhibition at Highest Test Article Concentration", "setting": "CYP2C19; 2C19, Mephenytoin, at 50 μM", "value": 83.2, "unit": "at 50 μM %"}, {"measurement": "IC50", "setting": "CYP2C19; microsomes", "value": 17.3, "unit": "µM"}]}, {"smiles": "OC1(c2ccc(Cl)cc2)c2ccccc2C2=NCCN21", "note": "(stereo not shown) [Compound A, 5-(4-chlorophenyl)-2,3-dihydroimidazo[1,2-b]isoindol-5-ol, reference compound]", "values": [{"measurement": "inhibition at 10 µM", "setting": "CYP2D6", "value": 70.8, "unit": "%"}, {"measurement": "inhibition at 10 µM", "setting": "CYP3A4; 3A4, Midazolam", "value": 11.7, "unit": "%"}, {"measurement": "inhibition at 10 µM", "setting": "CYP3A4; 3A4, Testosterone", "value": 14, "unit": "%"}]}]}
